In PubChem BioAssay (NCI):
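Grown in 96-well plates, cells were treated for 48 hours with each compound at five concentrations. Insufficient inhibition: endpoint recorded as highest concentration tested. TGI marks complete inhibition of growth.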

How the values were obtained:
Assay in all cases: DTP human tumour cell line panel, 48 h
[1] = test system: SK-MEL-5 melanoma
[2] = test system: A549 NSCLC
[3] = test system: HOP-62 NSCLC
[4] = test system: HCT-116 colon
[5] = test system: SF-295 CNS
[6] = test system: T-47D breast
[7] = test system: KM12 colon
[8] = test system: ACHN renal
[9] = test system: IGROV1 ovarian
[10] = test system: 786-0 renal
[11] = test system: SR leukemia
[12] = test system: SF-268 CNS
[13] = test system: PC-3 prostate
[14] = test system: BT-549 breast
[15] = test system: HT29 colon
[16] = test system: OVCAR-8 ovarian
[17] = test system: OVCAR-5 ovarian
[18] = test system: NCI-H23 lung
[19] = test system: HL-60(TB) leukemia

| Compound | TGI [1] [µM] | TGI [2] [µM] | TGI [3] [µM] | TGI [4] [µM] | TGI [5] [µM] | TGI [6] [µM] | TGI [7] [µM] | TGI [8] [µM] | TGI [9] [µM] | TGI [10] [µM] | TGI [11] [µM] | TGI [12] [µM] | TGI [13] [µM] | TGI [14] [µM] | TGI [15] [µM] | TGI [16] [µM] | TGI [17] [µM] | TGI [18] [µM] | TGI [19] [µM] |
| --- | --- | --- | --- | --- | --- | --- | --- | --- | --- | --- | --- | --- | --- | --- | --- | --- | --- | --- | --- |
| ONC1=Nc2ccccc2C(=S)N2CSCC12 (stereo unspecified) | 99.2 | > 100 | > 100 | > 100 | > 100 | > 100 | > 100 | > 100 | > 100 | > 100 | 89 | > 100 | > 100 | > 100 | > 100 | > 100 | > 100 | – | – |
| O=C1c2ccccc2C2C1C(c1ccccc1)C1(Cc3ccccc3C1=O)C2c1ccccc1 (stereo unspecified) | > 100 | > 100 | > 100 | > 100 | > 100 | > 100 | > 100 | > 100 | > 100 | > 100 | > 100 | > 100 | > 100 | > 100 | > 100 | > 100 | > 100 | > 100 | 35.6 |
| CCN(CC)C1C(=O)NC1C#Cc1ccccc1 (stereo unspecified) | > 100 | – | > 100 | > 100 | > 100 | > 100 | > 100 | > 100 | > 100 | > 100 | > 100 | > 100 | > 100 | > 100 | > 100 | > 100 | > 100 | > 100 | > 100 |
| Oc1cc(N2CCCC2)ccc1/C=N/N1C(=S)N(c2ccccc2)C(=Nc2ccccc2)C1=Nc1ccccc1 | > 100 | > 100 | > 100 | > 100 | > 100 | > 100 | > 100 | > 100 | > 100 | > 100 | > 100 | > 100 | > 100 | > 100 | > 100 | > 100 | > 100 | > 100 | – |
| COc1ccc(NC(C)=O)c(C(O)CCNC(C)=O)c1 (stereo unspecified) | > 100 | > 100 | – | > 100 | > 100 | > 100 | > 100 | > 100 | > 100 | > 100 | > 100 | > 100 | > 100 | > 100 | > 100 | > 100 | > 100 | > 100 | > 100 |
| O=C(NNC(=S)NCc1ccccc1)c1csc(NC(=S)NC2CCCCC2)n1 | 28.2 | > 100 | > 100 | 72.3 | > 100 | 95.4 | > 100 | > 100 | > 100 | > 100 | > 100 | > 100 | > 100 | > 100 | 12.1 | > 100 | > 100 | > 100 | > 100 |
| CC(=O)n1cc(OP(=O)(Oc2ccccc2)Oc2ccccc2)c2ccccc21 | 40.9 | > 100 | – | 92.2 | 57.3 | 80.2 | > 100 | – | > 100 | > 100 | 72.4 | 81.3 | 31 | > 100 | > 100 | > 100 | – | > 100 | 50.3 |
| CCS(=O)(=O)CCn1c(=O)c2c(ncn2C)n(C)c1=O | > 100 | > 100 | > 100 | > 100 | > 100 | > 100 | > 100 | > 100 | > 100 | > 100 | > 100 | > 100 | > 100 | > 100 | > 100 | > 100 | > 100 | > 100 | > 100 |
| N#CC(C#N)N=Nc1ccc(-c2nc3ccccc3o2)cc1 | 5.56 | 47.6 | 38.5 | 19.5 | – | 25.2 | 50.5 | 41.6 | 93.2 | 30.8 | 42.6 | > 100 | 29.2 | 31.8 | 27.8 | > 100 | 36.1 | 29.9 | 40.2 |
| ON[C@H]1C[C@@H](n2cnc3c(NC4CC4)ncnc32)[C@H](O)[C@@H]1O | > 100 | > 100 | > 100 | > 100 | > 100 | > 100 | > 100 | > 100 | > 100 | > 100 | > 100 | > 100 | > 100 | > 100 | > 100 | > 100 | > 100 | > 100 | – |
| CN(C)c1ccc(C2CC(c3ccc4ccccc4c3O)=NN2c2ccc([N+](=O)[O-])cc2[N+](=O)[O-])cc1 (stereo unspecified) | – | > 100 | > 100 | > 100 | > 100 | > 100 | > 100 | > 100 | > 100 | > 100 | 51.3 | > 100 | > 100 | > 100 | > 100 | > 100 | > 100 | 77.7 | – |
| O=c1[nH]c(=O)n(C2CC(O)C(CO)O2)c2nc3ccc4cc5ccccc5cc4c3nc12 (stereo unspecified) | > 100 | > 100 | > 100 | > 100 | > 100 | > 100 | > 100 | > 100 | > 100 | > 100 | > 100 | > 100 | > 100 | > 100 | > 100 | > 100 | > 100 | > 100 | – |
| CC(C)(C)OC(=O)NCCNCCNc1ccccc1 | > 100 | > 100 | > 100 | > 100 | > 100 | > 100 | > 100 | > 100 | > 100 | > 100 | > 100 | – | > 100 | > 100 | > 100 | > 100 | > 100 | > 100 | – |
| CC1CN(c2cc3c(cc2F)c(=O)c(C(=O)O)cn3-c2ccc(F)cn2)CC(C)N1 (stereo unspecified) | – | > 100 | > 100 | > 100 | > 100 | > 100 | > 100 | – | > 100 | > 100 | > 100 | > 100 | > 100 | > 100 | > 100 | > 100 | > 100 | > 100 | > 100 |
| COc1ccc(C2=C(N)c3ncccc3C2=O)cc1 | – | – | > 100 | > 100 | > 100 | > 100 | > 100 | > 10 | > 100 | > 100 | > 100 | > 100 | > 100 | > 100 | > 100 | > 100 | > 100 | > 100 | > 100 |
| Cn1c2ccccc2c(=O)c2cccc(C(=O)NCC(=O)O)c21 | > 100 | > 100 | > 100 | > 100 | > 100 | > 100 | > 100 | > 100 | > 100 | > 100 | > 100 | > 100 | > 100 | > 100 | > 100 | > 100 | > 100 | > 100 | – |
| Oc1c(Br)cc(/C=C/c2cccc(/C=C/c3cc(Br)c(O)c(Br)c3)n2)cc1Br | 19.8 | 14.9 | > 100 | 21 | 47.4 | 31.4 | 25.2 | 52.3 | 27.7 | 28 | 18.9 | 32.9 | 25.1 | > 100 | 25.1 | 41.7 | 32.3 | – | – |
| CC(C)C[C@H](NC(=O)[C@H](Cc1ccc(F)cc1)NC(=O)c1ccccn1)B(O)O | < 0.01 | 0.165 | < 0.01 | < 0.01 | < 0.01 | < 0.01 | < 0.01 | 0.0465 | – | < 0.01 | < 0.01 | < 0.01 | < 0.01 | < 0.01 | < 0.01 | < 0.01 | < 0.01 | < 0.01 | > 100 |
| CN(C)c1nncc2n[nH]nc12 | > 100 | > 100 | > 100 | > 100 | > 100 | > 100 | > 100 | > 100 | > 100 | > 100 | > 100 | – | > 100 | > 100 | > 100 | > 100 | > 100 | > 100 | > 100 |
| CCCCCCCCCCCCCCCCOP(=O)(O)OCC(NC(C)=O)C(=O)O (stereo unspecified) | > 100 | > 100 | 36.9 | > 100 | 47.4 | > 100 | – | > 100 | 62.2 | > 100 | > 100 | 95.9 | 34.7 | 34 | > 100 | > 100 | > 100 | > 100 | > 100 |
| CC(=O)c1ccc2c(c1)CC1(C2)Cc2ccc3c(c2C1=O)CCC3 (stereo unspecified) | 28.4 | > 100 | > 100 | > 100 | > 100 | 94.5 | > 100 | > 100 | > 100 | 40.8 | > 100 | > 100 | > 100 | > 100 | 31.6 | – | > 100 | > 100 | 48.3 |
| CCCCCCCCCCCCCCCCCCNc1nc(=O)n(C2CC(O)C(COP(=O)(O)OCC3OC(n4ccc(N)nc4=O)C(O)C3O)O2)cc1F (stereo unspecified) | > 100 | > 100 | > 100 | > 100 | > 100 | > 100 | > 100 | > 100 | > 100 | > 100 | > 100 | > 100 | > 100 | > 100 | 29.2 | 23 | > 100 | > 100 | – |
| CC1(C)N=C(N)N=C(N)N1c1cccc(C(=O)Nc2ccc(S(=O)(=O)F)cc2)c1 | > 100 | > 100 | > 100 | > 100 | > 100 | > 100 | > 100 | > 100 | > 100 | > 100 | – | > 100 | > 100 | > 100 | > 100 | > 100 | > 100 | > 100 | > 100 |
| CC(=O)OC[C@@]12Cc3ccc(C)c(O)c3[C@]1(C)[C@@H](OC(C)=O)[C@]1(O)[C@H]([C@@H](OC(=O)c3ccccc3)[C@@H](C)[C@H]1OC(C)=O)[C@H]2OC(C)=O | > 50 | – | > 50 | > 50 | > 50 | > 50 | > 50 | > 50 | > 50 | > 50 | > 50 | > 50 | > 50 | > 50 | – | > 50 | > 50 | > 50 | > 50 |
| CCN(CC)C(=S)SC(C(=O)Nc1nnc(-c2ccccc2)o1)c1ccccc1 (stereo unspecified) | 28.8 | 35.7 | > 100 | 34.7 | > 100 | > 100 | 62.7 | 57.7 | > 100 | 61.1 | 70.7 | – | 66.8 | 35 | 41.8 | > 100 | 56.1 | 34.2 | – |
| COc1ccc(N=NC(=Nc2ccc(Cl)cc2)c2ccc(N(CCC#N)CCC#N)cc2)cc1 | > 100 | > 100 | > 100 | > 100 | > 100 | 78 | > 100 | > 100 | > 100 | > 100 | > 100 | > 100 | > 100 | 87.3 | > 100 | > 100 | > 100 | > 100 | – |
